Patent US20180344702A1, “METHODS FOR TREATING PATIENTS WITH HEMATOLOGIC MALIGNANCIES” (Aptose Biosciences, Inc., priority 2017, published 2018)
Where “and” joins values, the source holds several entries; their conditions need not be identical. Equal entries are not always repeated.

Assays:
[1] = Pharmacokinetic study in rat; assay type: in vivo
[2] = tested on: Ba/F3-ITD + 842 (ITD + Y842C); experiment: Antiproliferative activity (Table 6); assay type: cell-based, Murin; details: 72 h
DOHH2 = experiment: Cytotoxicity, MTS cell viability; assay type: cell-based; details: Homo sapiens, DOHH-2, 72 h, FL, 3 days MTS
Experimental: (§1) Cells were seeded in a 96 well plate and treated with either vehicle (DMSO) or compound 7 at 10 different concentrations for 3 days at 37° C. and 5% CO2. Cell viability was assessed using CellTiter 96 AQueous one solution (MTS Promega Cat#G3581), and IC50 values calculated using GraphPad Prism 7 software.

L1236 = experiment: Cytotoxicity, MTS cell viability; assay type: cell-based; details: L-1236, 72 h, HL, 3 days MTS
Experimental: as §1

SU-DHL2 = experiment: Cytotoxicity, MTS cell viability; assay type: cell-based; details: Homo sapiens, SU-DHL-2, 72 h, ABC-DLBCL, 3 days MTS
Experimental: as §1

OCI-LY3 = experiment: Cytotoxicity, MTS cell viability; assay type: cell-based; details: Homo sapiens, 72 h, ABC-DLBCL, 3 days MTS
Experimental: as §1

BJAB = experiment: Cytotoxicity, MTS cell viability; assay type: cell-based; details: Homo sapiens, 72 h, GCB-DLBCL, 3 days MTS
Experimental: as §1

MHH-Call4 = experiment: Cytotoxicity, MTS cell viability; assay type: cell-based; details: MHHCALL4, 72 h, B-ALL, 3 days MTS
Experimental: as §1

U2932 = experiment: Cytotoxicity, MTS cell viability; assay type: cell-based; details: Homo sapiens, 72 h, ABC-DLBCL, 3 days MTS
Experimental: as §1

[3] = tested on: MOLM13 (FLT3-ITD, t(9:11)); experiment: Antiproliferative activity (Table 6); assay type: cell-based; details: Homo sapiens, MOLM-13, 72 h
[4] = tested on: Ba/F3 cells transfected with FLT3 WT; experiment: Cytotoxicity in isogenic transfected Ba/F3 cells (Table 4); assay type: cell-based, Murin; details: Mus musculus, BaF3, read-out: IC50 in Transfected Ba/F3 cells, FLT3 WT
Ba/F3-FLT3 (FLT3-WT) = experiment: Antiproliferative activity (Table 6); assay type: cell-based, Murin; details: 72 h
FLT3(ITD-D835V) = molecular target: T1, FLT3(ITD-D835V) (Homo sapiens, UniProt P36888, D835V, form not given); experiment: Binding constant (Kd), competition binding with qPCR readout
T1 construct: kinase-tagged T7 phage strains were prepared in an E. coli host derived from the BL21 strain; fused on or other part: T7 phage fusion or DNA tag for qPCR detection
Experimental: (§2) Measurements of said kinase activity are referred to as binding constants or Kd values. The protocol for obtaining these values is hereby described. For most assays, kinase-tagged T7 phage strains were prepared in an E. coli host derived from the BL21 strain. E. coli were grown to log-phase and infected with T7 phage and incubated with shaking at 32° C. until lysis. The lysates were centrifuged and filtered to remove cell debris. The remaining kinases were produced in HEK-293 cells and subsequently tagged with DNA for qPCR detection. […] The liganded beads were blocked with excess biotin and washed with blocking buffer (SeaBlock (Pierce), 1% BSA, 0.05% Tween 20, 1 mM DTT) to remove unbound ligand and to reduce nonspecific binding. […] Test compounds were prepared as 111× stocks in 100% DMSO. Kds were determined using an 11-point 3-fold compound dilution series with three DMSO control points. […] The compounds were then diluted directly into the assays such that the final concentration of DMSO was 0.9%. All reactions performed in polypropylene 384-well plate. Each was a final volume of 0.02 ml. […] The kinase concentration in the eluates was measured by qPCR.

FLT3(R834Q) = molecular target: T2, FLT3(R834Q) (Homo sapiens, UniProt P36888, R834Q); experiment: as above
T2 construct: made in house; host or cells: E. coli BL21-derived host (T7 phage) or HEK-293
Experimental: as §2

FLT3(ITD-F691L) = molecular target: T3, FLT3(ITD-F691L) (Homo sapiens, UniProt P36888, F691L, form not given); experiment: as above
T3 construct: kinase-tagged T7 phage strains were prepared in an E. coli host derived from the BL21 strain; fused on or other part: T7 phage fusion or DNA tag for qPCR detection
Experimental: as §2

FLT3(D835V) = molecular target: T4, FLT3(D835V) (Homo sapiens, UniProt P36888, D835V); experiment: as above
T4 construct: made in house; host or cells: E. coli BL21-derived host (T7 phage) or HEK-293
Experimental: as §2

[5] = tested on: Ba/F3-ITD + D835H (FLT3-ITD + D835H); experiment: Antiproliferative activity (Table 6); assay type: cell-based, Murin; details: 72 h
ALL patient samples = experiment: Ex vivo assay for patient sensitivity (MTS, 3-day culture); assay type: cell-based, human; details: N evaluated 18
Experimental: (§3) 85 Patients with a diagnosis of acute myeloid leukemia (AML), 15 patients with myelodysplastic syndrome/myeloproliferative neoplasms (MDS/MPN), 18 patients with acute lymphoblastic leukemia (ALL), and 56 patients with chronic lymphocytic leukemia (CLL) were evaluated for sensitivity to the multi-kinase inhibitor, Compound 7, using an ex vivo assay. Sensitivity to Compound 7 was evaluated across a concentration range from 10 nM to 10 μM. Cell viability was assessed using a colorimetric, tetrazolium-based MTS assay after a 3-day culture period, and IC50 values were calculated as a measure of drug sensitivity.

CLL patient samples = experiment: as above; assay type: cell-based, human; details: N evaluated 56
Experimental: as §3

MDS/MPN patient samples = experiment: as above; assay type: cell-based, human; details: N evaluated 15
Experimental: as §3

AML patient samples = experiment: as above; assay type: cell-based, human; details: N evaluated 85, 10 nM to 10 μM
Experimental: as §3

[6] = tested on: PDGFRA and FLT3 (WT) signaling in EOL-1 cells; experiment: Cell signaling Western blot; assay type: cell-based
Experimental: (§4) Immunoblot assays: Cells were treated with Compound 7 at various concentrations and collected for cell lysates. The total and phosphorylated levels of the indicated proteins were determined by Western Blot.

[7] = tested on: Aurora kinase in FLT3 WT cells (KG-1); experiment: Cell signaling Western blot; assay type: cell-based; details: KG-1 cells, FIGS. 25A-25B
Experimental: as §4

## Cc1cnc(-c2ccc(-c3ccc(NC(=O)Nc4c(F)cc(F)cc4F)cc3F)c3c2C(=O)NC3)[nH]1 [Compound 7, 1-{3-fluoro-4-[7-(5-methyl-1H-imidazol-2-yl)-1-oxo-2,3-dihydro-1H-isoindol-4-yl]-phenyl}-3-(2,4,6-trifluorophenyl)urea]
[1]; 2 mg/kg administered by i.v.
  Exposure: Reasonable exposure
[1]; administered orally, FIG. 5
  AUC: AUC improves in a dose-dependent manner
[2]
  IC50: 0.73 nM
DOHH2
  IC50: 2.94 nM
L1236
  IC50: 7820 nM
SU-DHL2
  IC50: 744 nM
OCI-LY3
  IC50: 830 nM
BJAB
  IC50: 882 nM
MHH-Call4
  IC50: 27.8 nM
U2932
  IC50: 632 nM
[3]
  IC50: 0.82 nM
[4]
  IC50: 11.3 nM
Ba/F3-FLT3 (FLT3-WT)
  IC50: 9.49 nM
FLT3(ITD-D835V)
  Kd: 1700 nM
FLT3(R834Q)
  Kd: 6.4 nM
FLT3(ITD-F691L)
  Kd: 15 nM
FLT3(D835V)
  Kd: 7.9 nM
[5]
  IC50: 6.74 nM
ALL patient samples
  % samples with IC50 < 0.1 μM: 61 (11/18) %
CLL patient samples
  % samples with IC50 < 0.1 μM: 41 (23/56) %
MDS/MPN patient samples
  % samples with IC50 < 0.1 μM: 53 (8/15) %
AML patient samples
  % samples with IC50 < 0.1 μM: 60% and 60 (51/85) %
[6]
  PDGFRA and FLT3 (WT) signaling (Western blot): inhibits PDGFRA and FLT3 (WT) signaling
[7]
  Aurora kinase activity and signaling (Western blot): inhibits Aurora kinase activity and signaling
